The conditions of data set [1]: reduction of disulfide bonds; cited from earlier work.
Data set [2] can be described thus: Sponge cleavage condition optimization (visual monitoring of sponge incubated with reductant). As to conditions: 37° C.; for Remarks: sponge cleavage: 1 mM reductant in William's E medium.
Procedure: For easy visualization during cleavage, HPCSS Gal sponges were pre-soaked in 0.25 mg/mL propidium iodide overnight (Molecular Probes, USA). The stained sponges were incubated with 3 mL each of TCEP and DTT (as known strong reductant) per sponge at various concentrations (25, 10, 5, 3 and 1 mM) in 37° C., 5% CO2 and 95% incubator. The morphological changes of the sponge were monitored visually every 15 minutes.
In another data set the test system is cells. As to conditions: 10 mg/mL, 24 hours of exposure; cited from earlier work.
A short description of data set [3]: Dynamic of sponge cleavage with time lapse imaging. The conditions noted are these: 10 mM TCEP, 37° C., confocal time lapse. As for the experimental part:
The propidium iodide-prestained HPCSS Gal sponges were incubated with 10 mM TCEP and its macroporosity changes were monitored by Olympus fluoview FV1000 equipped with 37° C. heated chamber with a 60× water lens for 30 minutes with 2 minutes time interval. Images were analysed using IMARIS and images assembled using Adobe illustrator CS3.

For data set [4], the system named is F-actin, E-cadherin and MRP2. Briefly: Immunofluorescence staining of polarity markers and cell-cell junction of retrieved hepatocyte spheroids. Format: cell-based, rat. As to conditions: 10 mM TCEP to cleave the sponge. As for the experimental part:
To stain F-actin, E-cadherin and MRP2, hepatocytes spheroids cultured for 72 hours post-seeding in the sponges and retrieved from HPCSS Gal sponges were fixed in 3.7% paraformaldehyde for 10 minutes. For staining F-actin, the cells were permeabilized for 5 minutes in 0.1% Triton X-100 and incubated with 1 μg/mL TRITC-phalloidin (Molecular Probes, USA) for 20 minutes. For E-cadherin and MRP2 staining, following washing and blocking with 2% BSA/0.2% Triton-X 100 the spheroids were incubated overnight at 4° C. with primary antibodies: anti-rat E-cadherin (BD, USA) and rabbit anti-rat MRP2 (Sigma Aldrich, Singapore), respectively. Secondary antibodies used were goat anti-mouse and goat anti-rabbit 488 and 555 (Molecular Probes, USA), respectively. Nuclei stain was captured using DAPI stain (Vecta Shield, UK). Images were captured using Olympus fluoview FV1000 with a 60× water lens. Images were analysed using IMARIS and assembled using Adobe illustrator CS3.

Data set [5] deals with CYP1A2, CYP2B2 and CYP3A2. The data set is described as follows: RT-PCR gene expression of cytochrome P450 genes in hepatocyte spheroids. The format is cell-based. As to conditions: 10 mM TCEP, 30 minutes, rat hepatocyte spheroids. As for the experimental part: Rat hepatocyte, E1 and mESCs spheroids were retrieved from the sponge by incubating cell seeded-cleavable sponge with 3 mL of 10 mM TCEP in respective cell culture mediums in each well of 12-well plate for 30 minutes at 37° C. (incubator set up 5% CO2 and 95% humidity). The cleaved sponge solution from each well was mixed thoroughly by 3 mL plastic dropper and then transferred into 15 mL falcon tube. This solution was further diluted with 3 mL pre-warmed DPBS and centrifuged at 100×g for 10 minutes. This washing step was repeated three times to remove TCEP solution completely. Eventually, the retrieved hepatocyte spheroids were resuspended in fresh mediums and replated on collagen coated dish or poly-L-lysine coated dish for further assays or spheroids manipulation.
RNA was extracted from hepatocytes cultured as 3D spheroids in HPCSS Gal sponges by RLT lysis buffer (Qiagen, Singapore). Total RNA concentration was quantified by a Nanodrop (Thermoscientific) and 1 μg of RNA was converted to cDNA by High Capacity RNA-to-cDNA (Applied Biosystems). Primers were designed using Primer 3 and real-time PCR was performed by using SYBR green fast master mix on a ABI 7500 Fast Real-Time PCR system (Applied Biosystems). Gene expression was calculated using the ΔΔCT method normalized to GAPDH. The primers used in experiment are shown below.

In the next data set the test system is primary rat hepatocyte. The data set is described as follows: TCEP toxicity study in primary rat hepatocyte (MTT). Format: cell-based. The conditions noted are these: for primary rat hepatocyte viability: MTT, ratio to untreated. The method, then: Primary rat hepatocyte was seeded on collagen coated well in 24-well plate format (0.3×10^6 cell per well). The culture was maintained for 3 days and the medium was replenished every day. On the 3rd day, the cells were incubated with TCEP solution in Williams' E medium at pre-determined concentrations and time; 5 mM for 1.5 hour, 10 and 25 mM for 30 minutes each. The duration of the incubation was chosen based on the ability of the associated TCEP concentrations to completely cleave HPCSS Gal sponge. Upon incubation, the morphology of the cells was monitored and followed with further incubation of 1 mg/mL (3-(4,5-dimethylthiazol-2-yl)-2,5-diphenyltetrazolium bromide (MTT) solution for 3 hours. The formed formazan product in each well was dissolved with 300 μL of 0.04 M HCl in isopropanol and its optical density was measured by TECAM Infinite M1000 microplate reader at 570 nm. Cell viability was determined by calculating the ratio of treated sample absorbance against untreated sample absorbance.

Setting [6] is: 3 mM reductant in William's E medium.
[7] abbreviates: 5 mM reductant in William's E medium.
Where [8] appears, read: 25 mM reductant in William's E medium.

Entries after “also recorded” stand apart in the source; their conditions may differ. Some results are limits rather than exact numbers.

Take `O[C@H](CS)[C@H](O)CS` (racemic) [DTT, dithiothreitol]: the “pH range at which the reductant is effective” value in data set [1] is 7-8.1. The “Remarks: sponge cleavage” value in data set [2] is listed as “Sponge not”. Besides, the “Remarks: time within which sponge cleaved” value in data set [2] (setting [6]) is recorded as “within 2 hours”; in data set [2] (setting [7]) it was “within 1.5 hour”; in data set [2] (10 mM reductant in William's E medium), “within 30 minutes”; in data set [2] (setting [8]), “within 30 minutes”.

Consider `O=C(O)CCP(CCC(=O)O)CCC(=O)O` [TCEP, tris(2-carboxyethyl)phosphine], for which the remaining viable cells in the data set with cells is given as 60%. The “time at which sponge macroporous networks had shrunken significantly” value in data set [3] turned out to be 6 min. Also, the “effect of TCEP incubation on polarity markers and cell-cell junction” value in data set [4] is on record as “does not show harmful effect”. For the same molecule, the “pH range at which the reductant is effective” value in data set [1] was 1.5-8.5. The “effect of TCEP incubation on CYP genes” value in data set [5] is “did not show any significant detrimental effect; also recorded: no significant effect”. The “primary rat hepatocyte viability” value with primary rat hepatocyte (5 mM, 1.5 hour) came to 79.75±10.71%; in the data set with primary rat hepatocyte (10 mM, 30 minutes), 87.42±8.03%; in the data set with primary rat hepatocyte (25 mM, 30 minutes), 93.06±6.96%. Besides, the “cell damage in phase contrast images” value with primary rat hepatocyte (hepatocytes with and without TCEP incubation) is recorded as “No significant cell damage”. For the same molecule, the “maintenance of cell viability (FIG. 10 legend)” value with primary rat hepatocyte (rat hepatocyte, all TCEP configurations tested) is more than 80%. Further, the “Remarks: sponge cleavage” value in data set [2] is “Sponge not”. The “Remarks: time within which sponge cleaved” value is “within 2 hours” in data set [2] (setting [6]), “within 1.5 hour” in data set [2] (setting [7]) and “within 30 minutes” in data set [2] (setting [8]).

The values above are taken from US20140080214A1, “CLEAVABLE CELLULOSIC SPONGE DEVELOPMENT FOR 3 DIMENSIONAL CELL CULTURE AND SPHEROIDS RETRIEVAL” (Agency for Science, Technology and Research, priority 2012, published 2014).
